One test relates to MPTP-induced monkey. Kind of test: Parkinson's disease score in MPTP-induced monkey. Format: in vivo, Macaque monkeys. Conditions: 1 mg/kg oral for 4 weeks after MPTP; compared with group given 1 mg/kg rasagiline; FIG. 1. Here is the method:
Macaque monkeys (n=35, 3 to 4-year-old) were used as an experimental model. The macaque monkeys were divided into three groups, and 0.2 mg/kg of MPTP was administered to each group (once a day, every day, until Parkinson's disease score reaches 8 or for 14 days) via intravenous injection. […] In addition, to confirm the effect of […] as a dopamine agonist, dopamine transporters existing in medial striatum and caudal striatum taken from the MPTP-induced monkey model were subjected to a dopamine transporter binding assay.
The extent of Parkinson's disease was measured by analyzing videotaped behaviors of each group of monkeys, based on four standards: a) range of movement, b) hypokinesia, c) extent of abnormal posture, and d) tremor. A Parkinson's disease score was evaluated by the sum of (4-range of movement)+hypokinesia+extent of abnormal posture+tremor. […] The Parkinson's disease score was measured for 10 minutes every 30 minutes through 2 hours. That is, the maximum value of the highest Parkinson's disease score is 40. Meanwhile, the measurement method performed based on the four standards was as follows, and evaluated scores below represent representative behaviors observed through observation periods: […]

In a further test the test system is caspase 3. Kind of test: Activity of caspase 3/7 (Apo-ONE) in MPP+-treated cells. Conditions: 2 mM MPP+, 24 hours; CBI 1, 5, 10 and 50 nM, rasagiline 50 nM; FIG. 18. Format: cell-based, human.
The subject of test [1] is catalase, superoxide dismutase (SOD) and glutathione peroxidase (GPx). Kind of test: Activities of antioxidative enzymes in MPP+-treated cells. Format: cell-based, human. The following applies: 2 mM MPP+, 24 hours; FIG. 21. Here is the method: In this embodiment, MAO-B-deficient human neuroblastoma SH-SY5Y cells (Korean Cell Line Bank) were used. The SH-SY5Y cells were distributed into a 6-well plate at a concentration of 1.8×10^5 cells/well, and then incubated with 5% of CO2 at 37° C. for 24 hours. The resulting cells were divided into three groups, 2 mM of MPP^+ was added to each group, two of the three groups were respectively treated 0.1, and the resultant was further incubated with 5% of CO2 at 37° C. for 24 hours. The control group which was not treated with MPP^+ was incubated under the same conditions as described above. Subsequently, cell extracts were obtained from the cells, and thus the activities of antioxidative enzymes, i.e., catalase, superoxide dismutase (SOD) and glutathione peroxidase (GPx) were measured.

Description for caspase 3: SH-SY5Y cells were incubated in a 96-well plate at a concentration of 5×10^5 cells/well under the same conditions as described above, the cells were treated with 2 mM of MPP^+ and CBI (1, 5, 10 and 50 nM) or rasagiline (50 nM), and the resulting cells were incubated for 24 hours. Subsequently, 100 μl of Apo-ONE caspase 3/7 reagent (Promega, G7790) was added thereto and mixed therewith, and the resultant was further incubated for 4 hours. After the incubation was terminated, fluorescence was measured at an excitation wavelength of 495 nm and an emission wavelength of 521 nm by using a fluorescence plate reader (GeminiXPS, Molecular Devices).

Regarding `NC(=O)OCc1cc(-c2ccc(OCc3ccccc3)cc2)no1` [CBI, carbamic acid 3-(4-benzyloxy-phenyl)-isoxazole-5-yl methylester], the “extent of Parkinson's disease (Parkinson's disease score)” value in the test with MPTP-induced monkey is reported as “significantly decreased extent of Parkinson's disease”. In the test with caspase 3, the “activity of caspase 3” value is on record as “reduced”. Moreover, in test [1], the “activity of the antioxidative enzymes decreased by MPP+” value is given as “an increase in a decreased activity of the antioxidative enzymes”.
